# Measured values reported in ChEMBL document CHEMBL1132790, “Synthesis and biological activity of a bivalent nucleotide inhibitor of ribonucleotide reductase” (Bioorg Med Chem Lett, 2000).
# How the values were obtained:
# [1] = (§1) Compound was tested for ribonucleotide reductase (RR) activity by inhibition of dGTP-activated ADP reduction
# [2] = as §1; remark: listed apart in the source
Structure (SMILES),Ki [1] [µM],Km [2] [µM]
Nc1ncnc2c1nc(Br)n2[C@@H]1O[C@H](COP(=O)(O)OP(=O)(O)O)[C@@H](O)[C@H]1O,77,
Nc1ncnc2c1ncn2[C@@H]1O[C@H](COP(=O)(O)OP(=O)(O)O)[C@@H](O)[C@H]1O,,34
Nc1nc(O)c2nc(Br)n(C3CC(O)C(COP(=O)(O)OP(=O)(O)OP(=O)(O)O)O3)c2n1 (stereo not drawn),56,
Nc1ncnc2c1nc(S)n2C1O[C@@H](COP(=O)(O)OP(=O)(O)O)[C@H](O)[C@@H]1O (stereo partly drawn),158,

# Continued by falling Ki [1], values first:
Ki [1] [µM],Km [2] [µM],Structure (SMILES)
22,,C=CS(=O)(=O)CCCCCCS(=O)(=O)CCSc1nc2c(N)ncnc2n1C1O[C@@H](COP(=O)(O)OP(=O)(O)O)[C@H](O)[C@@H]1O (stereo partly drawn)
19,,Nc1ncnc2c1nc(SCCS(=O)(=O)CCCCCCS(=O)(=O)CCSc1nc3c(N)ncnc3n1C1O[C@H](COP(=O)(O)OP(=O)(O)O)[C@@H](O)[C@H]1O)n2C1O[C@H](COP(=O)(O)OP(=O)(O)O)[C@H](O)[C@@H]1O (stereo partly drawn)
13,,Nc1nc(O)c2nc(S)n(C3CC(O)C(COP(=O)(O)OP(=O)(O)OP(=O)(O)O)O3)c2n1 (stereo not drawn)
9,,C=CS(=O)(=O)CCCCCCS(=O)(=O)CCSc1nc2c(O)nc(N)nc2n1C1C[C@@H](O)[C@H](COP(=O)(O)OP(=O)(O)OP(=O)(O)O)O1 (stereo partly drawn)
